Usually EC50 stands for the concentration giving half of the maximal effect. A high value points to lower potency in that assay.

One compound from paper PMC8517087, “Analysis of M4 Transmembrane Segments in NMDA Receptor Function: A Negative Allosteric Modulatory Site at the GluN1 M4 is Determining the Efficiency of Neurosteroid Modulation” (Frontiers in Pharmacology, 2021) can be followed below.

Counter-ions that a name gives are not always drawn.

Test in all cases: two-electrode voltage clamp, Xenopus oocytes, -70 mV
What all share (type): cell-based
For orientation: Two-electrode voltage clamp holds a large cell at a set potential and records current.

Test [1] deals with T1, GluN1^ΔM4+M4^N1/GluN2D (Rattus norvegicus; Mus musculus, UniProt P35439+Q03391).
T1 construct: gene Grin1; M4-truncated GluN1 plus separately expressed M4 fragment carrying GluN1 signal peptide, with full-length GluN2D; Xenopus oocytes
The note with it: saturating glutamate and glycine, PS pre-applied 45 s.

Test [2] has as its target T2, GluN1/GluN2A (Rattus norvegicus; Mus musculus, UniProt P35436+P35439).
T2 construct: gene Grin1; full-length wild-type subunits in pNKS2, cRNA in Xenopus laevis oocytes; heterotetramer (rat GluN1 with mouse GluN2A)

Test [3] has as its target T3, GluN1/GluN2A^ΔM4+M4^N2A (Rattus norvegicus; Mus musculus, UniProt P35436+P35439).
T3 construct: gene Grin1; full-length GluN1 with M4-truncated GluN2A plus separately expressed GluN2A M4 fragment; Xenopus oocytes
To be noted: saturating glutamate and glycine, PS pre-applied 45 s.

In test [4] the target is T4, GluN1^ΔM4+M4^N1/GluN2A (Rattus norvegicus; Mus musculus, UniProt P35436+P35439).
T4 construct: gene Grin1; M4-truncated GluN1 plus separately expressed M4 fragment carrying GluN1 signal peptide, with full-length GluN2A; Xenopus oocytes

T2 sequence (P35436 23-1464, other chains not shown): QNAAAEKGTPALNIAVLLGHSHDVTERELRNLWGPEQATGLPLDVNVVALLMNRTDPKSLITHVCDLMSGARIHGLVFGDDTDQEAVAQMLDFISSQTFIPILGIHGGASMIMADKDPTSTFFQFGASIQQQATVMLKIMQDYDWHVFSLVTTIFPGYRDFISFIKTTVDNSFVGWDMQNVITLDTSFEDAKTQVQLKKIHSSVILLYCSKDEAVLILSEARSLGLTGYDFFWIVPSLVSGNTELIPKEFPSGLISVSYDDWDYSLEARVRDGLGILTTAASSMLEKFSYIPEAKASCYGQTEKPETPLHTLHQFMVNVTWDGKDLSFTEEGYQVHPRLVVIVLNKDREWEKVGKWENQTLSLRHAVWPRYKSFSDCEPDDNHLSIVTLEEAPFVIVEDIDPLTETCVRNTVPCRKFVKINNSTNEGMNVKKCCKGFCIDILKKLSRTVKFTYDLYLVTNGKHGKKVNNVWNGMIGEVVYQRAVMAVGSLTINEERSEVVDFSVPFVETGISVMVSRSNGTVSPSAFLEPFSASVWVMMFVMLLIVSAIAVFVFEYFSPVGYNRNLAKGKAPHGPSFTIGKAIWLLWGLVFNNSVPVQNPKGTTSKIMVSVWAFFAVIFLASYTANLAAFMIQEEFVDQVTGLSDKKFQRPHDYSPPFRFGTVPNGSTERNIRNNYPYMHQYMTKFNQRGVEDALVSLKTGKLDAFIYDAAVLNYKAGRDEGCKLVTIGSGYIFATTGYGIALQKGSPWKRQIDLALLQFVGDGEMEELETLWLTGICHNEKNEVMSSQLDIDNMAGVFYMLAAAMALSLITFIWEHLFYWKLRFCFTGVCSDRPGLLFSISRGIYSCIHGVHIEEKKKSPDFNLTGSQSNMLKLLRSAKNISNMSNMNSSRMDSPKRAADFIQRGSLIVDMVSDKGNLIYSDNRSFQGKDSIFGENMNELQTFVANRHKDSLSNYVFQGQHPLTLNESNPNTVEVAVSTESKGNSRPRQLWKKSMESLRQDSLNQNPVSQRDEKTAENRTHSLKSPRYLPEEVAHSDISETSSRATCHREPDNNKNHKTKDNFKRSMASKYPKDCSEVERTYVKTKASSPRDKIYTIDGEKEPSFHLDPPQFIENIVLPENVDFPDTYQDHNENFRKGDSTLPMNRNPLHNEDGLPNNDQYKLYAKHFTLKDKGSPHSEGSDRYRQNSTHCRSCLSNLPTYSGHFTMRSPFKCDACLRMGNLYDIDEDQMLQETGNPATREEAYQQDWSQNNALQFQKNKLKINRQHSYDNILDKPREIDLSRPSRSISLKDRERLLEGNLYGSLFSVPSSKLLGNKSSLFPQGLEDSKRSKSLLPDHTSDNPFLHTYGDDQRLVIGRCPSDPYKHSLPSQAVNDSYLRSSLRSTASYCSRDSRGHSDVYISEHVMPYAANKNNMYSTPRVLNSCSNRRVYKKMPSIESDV
T3 sequence (P35436 23-803, stated change not applied, other chains not shown): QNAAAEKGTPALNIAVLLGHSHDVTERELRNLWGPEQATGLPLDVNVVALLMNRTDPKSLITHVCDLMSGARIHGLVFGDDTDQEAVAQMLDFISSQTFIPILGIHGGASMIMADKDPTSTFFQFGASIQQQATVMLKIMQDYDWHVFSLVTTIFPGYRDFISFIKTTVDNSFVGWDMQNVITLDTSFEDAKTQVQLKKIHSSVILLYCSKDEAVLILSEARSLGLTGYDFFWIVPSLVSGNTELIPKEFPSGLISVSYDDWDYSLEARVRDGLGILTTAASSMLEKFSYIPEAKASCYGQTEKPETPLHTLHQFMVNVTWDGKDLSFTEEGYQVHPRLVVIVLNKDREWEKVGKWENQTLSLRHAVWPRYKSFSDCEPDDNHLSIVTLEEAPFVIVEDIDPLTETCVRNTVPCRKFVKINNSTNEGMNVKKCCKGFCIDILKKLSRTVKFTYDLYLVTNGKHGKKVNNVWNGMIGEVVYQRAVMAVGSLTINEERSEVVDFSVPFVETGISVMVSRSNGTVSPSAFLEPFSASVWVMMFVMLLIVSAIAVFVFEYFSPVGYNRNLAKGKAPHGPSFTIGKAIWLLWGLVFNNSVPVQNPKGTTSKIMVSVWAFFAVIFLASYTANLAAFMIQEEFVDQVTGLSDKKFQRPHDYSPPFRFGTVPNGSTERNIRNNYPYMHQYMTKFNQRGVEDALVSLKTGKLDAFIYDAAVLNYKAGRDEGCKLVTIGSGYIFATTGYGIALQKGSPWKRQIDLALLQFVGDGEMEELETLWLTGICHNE
T3 sequence (P35436 804-1464, stated change not applied, other chains not shown): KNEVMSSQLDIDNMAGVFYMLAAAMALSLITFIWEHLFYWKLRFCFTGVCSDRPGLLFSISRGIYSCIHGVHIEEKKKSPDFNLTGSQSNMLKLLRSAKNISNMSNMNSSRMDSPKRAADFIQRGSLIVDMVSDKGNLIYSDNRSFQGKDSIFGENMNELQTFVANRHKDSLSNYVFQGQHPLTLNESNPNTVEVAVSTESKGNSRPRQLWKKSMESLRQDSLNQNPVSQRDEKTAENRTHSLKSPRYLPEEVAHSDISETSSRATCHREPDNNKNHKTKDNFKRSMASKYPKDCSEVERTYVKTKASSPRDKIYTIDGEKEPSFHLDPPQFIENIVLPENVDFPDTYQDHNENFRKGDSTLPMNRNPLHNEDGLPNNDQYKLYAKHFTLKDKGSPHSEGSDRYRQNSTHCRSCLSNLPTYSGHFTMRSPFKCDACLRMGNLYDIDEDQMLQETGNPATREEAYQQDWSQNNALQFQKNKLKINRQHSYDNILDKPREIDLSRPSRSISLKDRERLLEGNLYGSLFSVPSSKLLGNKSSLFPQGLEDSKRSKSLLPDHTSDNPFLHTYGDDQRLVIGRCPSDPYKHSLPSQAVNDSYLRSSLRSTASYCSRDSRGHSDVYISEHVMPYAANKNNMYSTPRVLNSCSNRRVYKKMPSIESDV

Consider `CC(=O)[C@H]1CC[C@H]2[C@@H]3CC=C4C[C@@H](OS(=O)(=O)O)CC[C@]4(C)[C@H]3CC[C@]12C` [pregnenolone sulfate, 20-oxo-5-pregnen-3β-yl sulfate], for which, in test [1], the “Imax potentiation (fold)” value is 1.45 ± 0.19 fold. For the same compound, the EC50 in test [2] is 12.4 ± 1.3 µM; in test [4], 15 ± 1.1 µM. Besides, in test [3], the “Imax potentiation at 100 μM (fold)” value was ~ 1.1 fold.
